Experiment [1] has as its system phospho serine/threonine PKA substrate. As to the kind of experiment: PKA substrate phosphorylation in forskolin-stimulated cells, Western blot. It counts as cell-based. The conditions noted are these: MDA-MB-231 cells, 50 µM H89 added 30 min before 50 µM forskolin (30 min); n = 3. On the procedure: (§1) Next, we sought to assess whether StIP-TAC could also downregulate PKAc signaling in cells. For this experiment, cells were treated with forskolin to stimulate PKAc activity. Cells were either treated with DMSO, the small molecule PKAc inhibitor H89, StIP-TAC alone, or StIP-TAC with SAINT protein (Figure 4; Figure S7). […] (Figure 4C,D). A known PKA substrate, vasodilator-stimulated phosphoprotein (VASP),[42] was also probed for PKA-mediated phosphorylation (Figure S8).
Cell-based PROTAC activity assays. MDA-MB-231 cells were grown on 6-well tissue culture plates (BD Biosciences). Cells were serum-starved for 24 hours in serum-free RPMI with penicillin/streptomycin, glucose, and L-glutamine. StIP-TAC treatment was prepared with SAINT-Protein reagent according to manufacturer protocol (Synvolux) and added to cells at a final concentration of 10 µM for 5 hours. For phosphorylation studies, cells were additionally stimulated with 50 µM forskolin for 30 minutes before harvesting. For H89-treated cells, 50 μM H89 was added 30 minutes before stimulation […]
with forskolin. […]
Cells were harvested in Laemmli sample buffer, boiled for 10 minutes and protein levels were analyzed via western blotting. For control experiments, cells were incubated for 5 hours with an equivalent volume of DMSO or SAINT-Protein to the above studies, with or without forskolin stimulation.
To assess PKA degradation, anti-PKAc (1:1000, BD Biosciences) and anti-GAPDH (1:1000, Proteintech) primary antibodies were used. To assess PKA substrate phosphorylation, anti-phospho serine/threonine PKA substrate (1:1000, Cell Signaling […]
Incubation with primary antibodies was followed by incubation with anti-mouse […]
Biosciences). Western blot fluorescence detection was performed using a LI-COR Odyssey Fc imaging system. Data analysis was performed using GraphPad Prism […]
Figure S7: Western blots for PKA substrate phosphorylation. Experiments were performed in triplicate (n=3) in low passage number MDA-MB-231 cells (ATCC HTB-26). Following t = 24 hour starvation in serum-free RPMI media, cells were treated for t = 5 hours with DMSO, SAINT-Protein Lipid reagent alone, 10 µM StIP-TAC, or 10 µM StIP-TAC incubated with SAINT-Protein Lipid reagent per manufacturer instructions. For forskolin-stimulated treatments, cells were incubated for 30 minutes with 50 µM forskolin […]
prior to harvesting in Laemmli sample buffer. For H89-inhibited treatments, cells were incubated for 30 minutes prior to forskolin stimulation with 50 µM H89. Lysates were run via SDS-PAGE and Western blotting performed anti-phospho serine/threonine PKA substrate (1:1000, Cell Signaling Technology) and anti-tubulin (1:1000, Cell Signaling Technology) primary antibodies.

A further experiment deals with phospho VASP. Nature of the experiment: VASP phosphorylation in forskolin-stimulated cells, Western blot. The conditions noted are these: MDA-MB-231 cells, 50 µM H89 added 30 min before 50 µM forskolin (30 min); n = 3. It counts as cell-based. On the procedure: as §1
Cell-based PROTAC activity assays. MDA-MB-231 cells were grown on 6-well tissue culture plates (BD Biosciences). Cells were serum-starved for 24 hours in serum-free RPMI with penicillin/streptomycin, glucose, and L-glutamine. StIP-TAC treatment was prepared with SAINT-Protein reagent according to manufacturer protocol (Synvolux) and added to cells at a final concentration of 10 µM for 5 hours. For phosphorylation studies, cells were additionally stimulated with 50 µM forskolin for 30 minutes before harvesting. For H89-treated cells, 50 μM H89 was added 30 minutes before stimulation with forskolin. For degradation studies, cells were co-treated with 10 μM MG-132 (Selleck Chemicals) alongside StIP-TAC and DMSO treatments for the duration of the 5-hour experiment. […] Cells were harvested in Laemmli sample buffer, boiled for 10 minutes and protein levels were analyzed via western blotting. […]
Biosciences). Western blot fluorescence detection was performed using a LI-COR Odyssey Fc imaging system. […]
Table S1. Peptide and PROTAC sequences, expected and observed masses determined via HPLC-MS. […]
Figure S8: StIP-TAC inhibits phosphorylation of the PKA substrate VASP. […] (B) Densitometric quantification of Western blots […]
reduction in phosphorylated VASP in cells treated with H89 and StIP-TAC with SAINT Protein reagent. Quantification was performed via Li-COR Image Studio. **p=0.010; ***p<0.001; ns, not significant as assessed by one-way ANOVA and Bonferroni’s multiple comparisons test. […]
Background: In western blotting, separated proteins are transferred to a membrane and probed.

The target in experiment [2] is recombinant human DNAJB1-PKAc (Homo sapiens, UniProt P17612+P25685). Nature of the experiment: Fluorescence polarization direct binding of fluorescein-labeled peptides. The settings on record: FP, N-terminally FAM-labeled peptide 0.5 nM, DNAJ-PKA-C 3 µM to 30 pM, 20 mM MOPS pH 7, 150 mM NaCl, 0.005% CHAPS, 1 mM ATP, 10 mM MgCl2, room temperature, mean and SD of three independent measurements. The protocol:
To determine the binding affinity of the truncated library toward the catalytic subunit of PKA, fluorescence polarization (FP) experiments were performed using N-terminally fluorescein-labeled PKI-derived peptides incubated with a range of concentrations of recombinant human DNAJB1-PKAc (Figure 2). The DNAJB1-PKAc chimera is a clinically relevant protein identified in fibrolamellar hepatocellular carcinoma (FL-HCC) patients that combines the chaperonin-binding domain of heat-shock protein 40 (HSP40/DNAJ) with the catalytic (c) subunit of PKA.[34] The active site of the DNAJB1-PKAc protein is identical to native PKAc and retains inhibition by PKI with a nearly identical binding conformation.[35] […] To generate the StIP-TAC, several PEG linker lengths were conjugated with the thalidomide-derived Cereblon Ligand 1 and preliminarily tested (PEG3 to PEG9; Figure S2). All PEG lengths appeared to yield compound activity, and thus the PEG8 linker was chosen to provide greater flexibility to the overall compound. […]
Fluorescence Polarization (FP) Assay. Binding studies for the truncated peptide library to DNAJ-PKA-C were performed according to protocols described previously 21.
FAM-labeled peptides were plated to a final concentration of 0.5 nM after the addition of protein in 384-well microtiter plates. A tenfold dilution series of DNAJ-PKA-C were mixed in peptide wells to have 6 final concentrations ranging from 3 µM to 30 pM.
Assays were performed using FP buffer (20 mM MOPS pH 7, 150 mM NaCl, 0.005% CHAPS, 1 mM ATP, 10 mM MgCl2) at room temperature. All data were obtained using a BioTek Synergy 2 microplate reader using the following settings: excitation/emission/dichroic filters: 485-20 nm/528-20 nm/510 nm, 50 flashes per well, settling time 0.1 s. Non-linear regression (sigmoidal dose-response) was performed using GraphPad Prism 6.01 on FP signals plotted against log-scale protein concentrations to determine equilibrium dissociation constants (KD). Data analysis was performed using GraphPad Prism (Dotmatics). […]
(In general: Fluorescence polarisation rises when a labelled molecule tumbles more slowly, as on binding a larger partner.)

Consider three compounds from paper PMC11420944, “Targeted Degradation of Protein Kinase A via a Stapled Peptide PROTAC” (ACS Chemical Biology, 2024).

Molecules are shown by their SMILES.

With `O=S(=O)(NCCNC/C=C/c1ccc(Br)cc1)c1cccc2cnccc12` [H89, reference compound], in experiment [1], the “total PKA substrate phosphorylation” value is reported as “statistically significant reduction”. In the experiment with phospho VASP, the “phosphorylated VASP” value is “statistically significant reduction”.

One may read the Kd as the free concentration of one partner at which half of the binding sites on the other are occupied at equilibrium, for simple one-to-one binding. Turning to `CC[C@H](C)[C@H](NC(=O)[C@H](C)NC(=O)[C@H](CC(N)=O)NC(=O)[C@H](CCCNC(=N)N)NC(=O)[C@H](CCCNC(=N)N)NC(=O)CNC(=O)[C@@H](NC(=O)[C@H](CCCNC(=N)N)NC(=O)CNC(=O)[C@H](CO)NC(=O)[C@H](C)NC(=O)[C@@H](NC(=O)[C@H](Cc1ccccc1)NC(=O)[C@H](CC(=O)O)NC(=O)[C@]1(C)CCCC=CCCC[C@](C)(NC(=O)COCCOCCOCCNC(=O)c2ccc3c(c2)C(=O)OC32c3ccc(O)cc3Oc3cc(O)ccc32)C(=O)N[C@@H]([C@@H](C)O)C(=O)N[C@@H]([C@@H](C)O)C(=O)N[C@@H](Cc2ccc(O)cc2)C(=O)N1)[C@@H](C)CC)[C@@H](C)O)C(N)=O` [StIP-3], the Kd in experiment [2] is 3 to 4 nM; in experiment [2] (SD), 3.5 ± 0.1 nM.

As for `CC[C@H](C)[C@H](NC(=O)[C@H](C)NC(=O)[C@H](CC(N)=O)NC(=O)[C@H](CCCNC(=N)N)NC(=O)[C@H](CCCNC(=N)N)NC(=O)CNC(=O)[C@@H](NC(=O)[C@H](CCCNC(=N)N)NC(=O)CNC(=O)[C@H](CO)NC(=O)[C@H](C)NC(=O)[C@@H](NC(=O)[C@H](Cc1ccccc1)NC(=O)[C@H](CC(=O)O)NC(=O)[C@]1(C)CCCC=CCCC[C@](C)(NC(=O)[C@@H](NC(=O)[C@H](CC(=O)O)NC(=O)[C@@H](NC(=O)COCCOCCOCCNC(=O)c2ccc3c(c2)C(=O)OC32c3ccc(O)cc3Oc3cc(O)ccc32)[C@@H](C)O)C(C)C)C(=O)N[C@@H]([C@@H](C)O)C(=O)N[C@@H]([C@@H](C)O)C(=O)N[C@@H](Cc2ccc(O)cc2)C(=O)N1)[C@@H](C)CC)[C@@H](C)O)C(N)=O` [StIP-4], the dissociation constant (Kd) in experiment [2] is 3 to 4 nM; in experiment [2] (SD), 3.2 ± 0.1 nM.
